According to ChEMBL document CHEMBL1136661, “Interfacial peptide inhibitors of HIV-1 integrase activity and dimerization” (Bioorg Med Chem Lett, 2003):

What follows are compounds tested against Human immunodeficiency virus type 1 integrase (Human immunodeficiency virus 1, UniProt Q7ZJM1) (assay: Inhibitory activity of compound against HIV-1 integrase).
Chain of Human immunodeficiency virus type 1 integrase (Q7ZJM1 whole entry): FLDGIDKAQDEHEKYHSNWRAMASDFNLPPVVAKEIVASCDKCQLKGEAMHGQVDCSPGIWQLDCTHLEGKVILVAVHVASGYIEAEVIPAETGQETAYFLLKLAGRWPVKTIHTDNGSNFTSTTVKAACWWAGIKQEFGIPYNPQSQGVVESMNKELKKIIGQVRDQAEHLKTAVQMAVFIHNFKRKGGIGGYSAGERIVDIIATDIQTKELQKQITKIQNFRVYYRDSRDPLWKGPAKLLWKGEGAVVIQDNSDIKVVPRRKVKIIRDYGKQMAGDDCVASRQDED

IC50 [µM] | Compound
2 | H-AGERIVDIIATDIQ-NH2
30 | CC[C@@H](C)[C@H](NC(=O)[C@H](CCCNC(=N)N)NC(=O)[C@H](CCC(=O)O)NC(=O)CNC(=O)[C@H](C)N)C(=O)N[C@H](C(=O)N[C@@H](CC(=O)O)C(=O)N[C@H](C(=O)N[C@H](C(=O)N[C@@H](C)C(N)=O)[C@@H](C)CC)[C@@H](C)CC)C(C)C
> 1000 | H-STTVKAASWWA-NH2
35 | H-QETAYFLLKLAGRWP-NH2
> 1000 | H-GYIEAEVI-NH2
3 | H-HLKTAVQMAVFIHNFKR-NH2
150 | H-QETAYFLLKLAGR-NH2
